{"source": "patent US11957757B2", "about": "“Method for preparing stabilized metal ion ligand nanocomplex and compositions thereof” (AUBURN UNIVERSITY, priority 2017, dated 2024)", "key": {"[1]": {"test_system": "DU145-TXR drug-resistant prostate cancer cells", "experiment": "MTT cytotoxicity assay, DU145-TXR cells", "assay_type": "cell-based", "conditions": "for cell toxicity: equivalent concentrations, 48 hours", "description": "Cells were cultured at 37° C. in a humidified atmosphere containing 5% CO2. […] Cytotoxicity was calculated using the following equation: Cell Viability (%)=(ATest/Acontrol)×100%. Furthermore, IC50 was calculated with SigmaPlot software based on a dose-response curve."}, "DU145-TXR cells [2]": {"test_system": "DU145-TXR cells", "experiment": "Endoplasmic reticulum (ER) staining", "conditions": "0.5 μM, 8 hours"}, "DU145-TXR cells [3]": {"test_system": "DU145-TXR cells", "experiment": "Intracellular ROS, H2DCFDA dye method", "assay_type": "cell-based", "conditions": "100 μM, positive control", "description": "The generation of ROS was determined with a 2′,7′-dichlorodihydrofluorescein diacetate (H2DCFDA) dye method. Briefly, cells were seeded in a dark-walled, clear-bottomed 96-well plate with 50,000 cells per well and incubated at 37° C. overnight before study. Cells were incubated with 20 μM H2DCFDA in Hank's Buffered Salt Solution (HBSS, pH=7.4) for 30 minutes at 37° C. in the dark, and treated with different formulations."}}}
{"smiles": "CCN(CC)C(=S)S", "note": "[DDC-Na, sodium diethyldithiocarbamatetrihydrate]", "values": [{"measurement": "cell toxicity", "setting": "[1]", "value": "did not show significant cell toxicity"}]}
{"smiles": "CC(=O)O[C@H]1C(=O)[C@@]2(C)[C@H]([C@H](OC(=O)c3ccccc3)[C@]3(O)C[C@H](OC(=O)[C@H](O)[C@@H](NC(=O)c4ccccc4)c4ccccc4)C(C)=C1C3(C)C)[C@]1(OC(C)=O)CO[C@@H]1C[C@@H]2O", "note": "[paclitaxel]", "values": [{"measurement": "ER structure (ER-specific dye staining)", "setting": "DU145-TXR cells [2]", "value": "typical reticulate structure"}, {"measurement": "IC50", "setting": "[1]; 48 hours of treatment", "value": 2580, "unit": "nM"}]}
{"smiles": "[Cl][Cu][Cl]", "note": "[CuCl2, copper chloride]", "values": [{"measurement": "cell toxicity", "setting": "[1]", "value": "did not show significant cell toxicity"}]}
{"smiles": "OO", "note": "[H2O2]", "values": [{"measurement": "ROS level", "setting": "DU145-TXR cells [3]", "value": "increased"}]}
